Assays:
Test in all cases: relative viability (nuclei count vs DMSO), 5 days (fraction); higher = more cells survive
Vandetanib + Olaparib = compound: COc1cc2/c(=N/c3ccc(Br)cc3F)nc[nH]c2cc1OCC1CCN(C)CC1 [Vandetanib] + O=C(c1cc(Cc2n[nH]c(=O)c3ccccc23)ccc1F)N1CCN(C(=O)C2CC2)CC1 [Olaparib] (partner 8 µM)
In short: (§1)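 Five library-drug doses in √10 steps were combined with a fixed anchor-drug dose, or a single drug was given alone, by pin tool to lung cancer cell lines in 1536-well plates the day after seeding. Nuclei were stained and counted after 5 days. Relative viability is the nuclei count in treated wells over that in vehicle wells, taken as the median of duplicate plates.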

NVP-TAE684 + Foretinib = compound: COc1cc(N2CCC(N3CCN(C)CC3)CC2)ccc1Nc1ncc(Cl)c(Nc2ccccc2S(=O)(=O)C(C)C)n1 [NVP-TAE684] + COc1cc2c(Oc3ccc(NC(=O)C4(C(=O)Nc5ccc(F)cc5)CC4)cc3F)ccnc2cc1OCCCN1CCOCC1 [Foretinib] (partner 0.25 µM)
In short: as §1

CUDC-101 + Crizotinib = compound: C#Cc1cccc(Nc2ncnc3cc(OC)c(OCCCCCCC(=O)NO)cc23)c1 [CUDC-101] + C[C@@H](Oc1cc(-c2cnn(C3CCNCC3)c2)cnc1N)c1c(Cl)ccc(F)c1Cl [Crizotinib] (partner 1 µM)
In short: as §1

CUDC-101 + Bortezomib = compound: C#Cc1cccc(Nc2ncnc3cc(OC)c(OCCCCCCC(=O)NO)cc23)c1 [CUDC-101] + CC(C)C[C@H](NC(=O)[C@H](Cc1ccccc1)NC(=O)c1cnccn1)B(O)O [Bortezomib] (partner 0.002 µM)
In short: as §1

Cell Line	relative viability (Vandetanib + Olaparib; first compound 0.02 µM)	relative viability (Vandetanib + Olaparib; first compound 0.06325 µM)	relative viability (Vandetanib + Olaparib; first compound 0.2 µM)	relative viability (Vandetanib + Olaparib; first compound 0.6325 µM)	relative viability (Vandetanib + Olaparib; first compound 2 µM)	relative viability (NVP-TAE684 + Foretinib; first compound 0.2 µM)	relative viability (NVP-TAE684 + Foretinib; first compound 0.6325 µM)	relative viability (NVP-TAE684 + Foretinib; first compound 2 µM)	relative viability (CUDC-101 + Crizotinib; first compound 0.01 µM)	relative viability (CUDC-101 + Crizotinib; first compound 0.03162 µM)	relative viability (CUDC-101 + Crizotinib; first compound 0.1 µM)	relative viability (CUDC-101 + Crizotinib; first compound 0.3162 µM)	relative viability (CUDC-101 + Crizotinib; first compound 1 µM)	relative viability (CUDC-101 + Bortezomib; first compound 0.01 µM)	relative viability (CUDC-101 + Bortezomib; first compound 0.03162 µM)	relative viability (CUDC-101 + Bortezomib; first compound 0.1 µM)	relative viability (CUDC-101 + Bortezomib; first compound 0.3162 µM)	relative viability (CUDC-101 + Bortezomib; first compound 1 µM)
HCC-78	0.823	0.756	0.748	0.913	0.703	0.539	0.539	0.382	0.365	0.298	0.354	0.301	0.103	0.462	0.383	0.588	0.342	0.175
HCC-366	0.438	0.34	0.389	0.362	0.31	1.07	0.935	0.685	0.531	0.535	0.557	0.5	0.372	1.04	0.988	1.07	1.07	0.996
HCC-827	0.629	0.653	0.627	0.309	0.152	1.16	1.02	0.874	0.966	0.501	0.298	0.218	0.174	1.08	1.07	0.788	0.439	0.344
HOP-62	0.51	0.397	0.265	0.373	0.447	1.21	1.12	1.12	0.95	0.753	1.03	0.925	0.666	0.605	0.773	1.09	0.667	0.473
IA-LM	0.969	0.874	0.864	0.867	0.849	1.07	1.07	1.11	0.944	0.91	0.868	0.587	0.466	0.772	0.781	0.795	0.575	0.196
LC-2-ad	0.673	0.711	0.695	0.792	0.714	0.936	0.864	0.403	0.454	0.482	0.432	0.436	0.343	1.09	1.06	1.08	1.26	0.822
LCLC-97TM1	0.374	0.377	0.357	0.352	0.343	0.933	0.897	0.278	0.549	0.386	0.443	0.343	0.17	0.629	0.308	0.527	0.546	0.28
LCLC-103H	0.729	0.657	0.529	0.698	0.707	0.681	0.681	0.297	0.891	0.916	1.08	1.08	0.957	1.17	1.03	1.01	1.14	0.68
LK-2	0.846	0.71	0.724	0.72	0.669	1.14	1.28	0.316	0.249	0.229	0.21	0.246	0.225					
LOU-NH91	0.901	0.788	0.813	0.732	0.679	0.892	0.92	0.801	0.701	0.605	0.699	0.521	0.539	0.544	0.488	0.452	0.405	0.448
LU99A	0.251	0.301	0.173	0.209	0.272	0.873	0.83	0.365	0.516	0.585	0.458	0.45	0.256	1.36	1.14	1.04	0.998	0.635
NCI-H358	0.552	0.527	0.646	0.472	0.319	0.736	0.672	0.099	0.558	0.581	0.435	0.497	0.236					
NCI-H522	0.604	0.703	0.689	0.743	0.605													
NCI-H1395	0.511	0.487	0.442	0.523	0.494	1.1		0.807										
NCI-H1563						0.914	0.88	0.696	0.721	0.874	0.891	0.791	0.68	0.842	0.712	0.948	0.916	0.792
NCI-H1623						0.865	0.899	0.65										
NCI-H1648	0.591	0.771	0.91	1.15	0.761													
NCI-H1792	0.425	0.442	0.469	0.66	0.409				0.971	0.944	0.942	1.04	0.953	0.98	0.965	0.918	0.952	0.965
NCI-H1793	0.86	0.803	0.74	0.658	0.577	0.684	0.587	0.22										
NCI-H1944	0.414	0.396	0.306	0.377	0.397	0.847	0.929	0.533	1.07	1.09	0.954	0.918	0.491					
NCI-H2170	0.639	0.615	0.546	0.609	0.663	1.1	0.997	0.999	1.14	1.23	1.17	1.2	0.732					
NCI-H2342	0.482	0.41	0.477	0.415	0.438	1.07	1.06	0.545										
SK-MES-1	0.71	0.676	0.708	0.606	0.424	0.597	1.12	0.774	1.06	1	1.02	1.04	0.945					
SW 900	0.804	0.784		0.88	0.815	0.86	0.802	0.638										

Source: the supplement of paper PMC10307832
